The values that follow come from patent US10017538B2, “Bioactive peptides having insecticide activity” (The United States of America, as represented by the …, priority 2016, dated 2018).

The subject of this experiment is Solenopsis invicta workers. In words: Injection bioassay of peptides in fire ant workers, adult mortality. The format is in vivo. To be noted: peptide with Cys-Cys S-S bond in insect saline, injected into fire ant workers. The procedure:
Peptides identified herein are injected into the hemocoel of Solenopsis invicta workers using a Nanoliter 2000™ System (World Precision Instruments) with pulled borosilicate needles.
To determine the negative impact these peptides may have against fire ants, synthesis of potential candidates of small peptides with Cysteine-Cysteine S—S bond at the N- and C-terminal ends of SEQ ID NO: 2 and SEQ ID NO: 14. Synthesis of the peptides is described above. These peptides were dissolved in an insect saline (composition in mM: NaCl 126, KCl 5.4, NaH2PO4 0.17 and KH2PO4 0.22, pH 7.4) or the saline only control were injected into fire ant workers and phenotypic effects monitored.
To determine the negative impact these peptides may have against fire ants, synthesis of potential candidates of small peptides with Cysteine-Cysteine S—S bond at the N- and C-terminal ends of SEQ ID NO:2-SEQ ID NO:14. Synthesis of the peptides is described above. These peptides were dissolved in an insect saline (composition in mM: NaCl 126, KCl 5.4, NaH2PO4 0.17 and KH2PO4 0.22, pH 7.4) or the saline only control were injected into fire ant workers and phenotypic effects monitored.

Consider “CMARYMSAC (Synthetically generated peptide) [SEQ ID NO: 11, synthetically generated peptide, loop-constrained by flanking cysteines]”, for which the “adult mortality compared to the saline control” value is reported as “significant increase in adult mortality”.

Regarding “CLKIGSHFC (Synthetically generated peptide) [SEQ ID NO: 3, synthetically generated peptide, loop-constrained by flanking cysteines]”, the “adult mortality compared to the saline control” value is recorded as “significant increase in adult mortality”.

“CGSHFC (Synthetically generated peptide) [SEQ ID NO: 14, short synthetically generated peptide]”: the “adult mortality compared to the saline control” value was “did not affect adult mortality”.

“CIQQGSHFC (Synthetically generated peptide) [SEQ ID NO: 4, synthetically generated peptide, loop-constrained by flanking cysteines]”: the “adult mortality compared to the saline control” value was “significant increase in adult mortality”.

As to “CRGATPMSC (Synthetically generated peptide) [SEQ ID NO: 12, synthetically generated peptide, loop-constrained by flanking cysteines]”, the “adult mortality compared to the saline control” value is “significant increase in adult mortality”.

As to “CQKIGSHFC (Synthetically generated peptide) [SEQ ID NO: 2, synthetically generated peptide, loop-constrained by flanking cysteines]”, the “adult mortality compared to the saline control” value was “increase in adult mortality”.
